Experimental findings from ChEMBL document CHEMBL5325399, “Pleiotropic effects of a mitochondrion-targeted glutathione reductase inhibitor on restraining tumor cells” (Eur J Med Chem, 2023) are described below.

Active and inactive are the calls of the source. The rule behind the calls is not given here.

The test system of data set [1] is Cell membrane. The data set can be described thus: Dissipation of mitochondrial membrane potential in human HeLa cells assessed as proportion of cells with low MMP measured after 24 hrs by JC-1 staining based flow cytometry (reference value: 3.01%). Particulars: Mitochondria. (In flow cytometry, cells or beads pass a laser one at a time.)
Data set [2] has as its system Cell membrane. The data set can be described thus: Dissipation of mitochondrial membrane potential in human HeLa cells assessed as proportion of cells with high MMP measured after 24 hrs by JC-1 staining based flow cytometry (reference value: 96.54%). To be noted: Mitochondria.
Data set [3] deals with HeLa. The data set can be described thus: Cytotoxicity against human HeLa cells assessed as reduction in cell viability measured after 48 hrs. In kind it is functional, cell-based.
For data set [4], the target named is T1, Glutathione reductase, mitochondrial (Homo sapiens) (UniProt P00390).
T1 sequence (whole entry): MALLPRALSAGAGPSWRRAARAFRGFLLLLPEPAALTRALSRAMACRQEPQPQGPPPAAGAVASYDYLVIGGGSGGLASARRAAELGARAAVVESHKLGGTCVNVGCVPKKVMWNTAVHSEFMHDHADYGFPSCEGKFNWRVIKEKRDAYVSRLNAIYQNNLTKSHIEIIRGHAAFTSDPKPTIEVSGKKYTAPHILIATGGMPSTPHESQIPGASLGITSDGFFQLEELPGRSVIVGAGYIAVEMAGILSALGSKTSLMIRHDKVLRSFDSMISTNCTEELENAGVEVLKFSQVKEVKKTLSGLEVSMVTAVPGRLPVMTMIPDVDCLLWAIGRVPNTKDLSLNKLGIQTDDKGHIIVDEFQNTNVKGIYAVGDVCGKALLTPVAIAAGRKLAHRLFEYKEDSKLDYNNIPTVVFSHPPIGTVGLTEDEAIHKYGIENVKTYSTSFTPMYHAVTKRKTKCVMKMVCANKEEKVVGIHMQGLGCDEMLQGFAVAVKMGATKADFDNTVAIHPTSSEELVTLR
Briefly: Covalent binding affinity to Cys278 residue of glutathione reductase (unknown origin) by mass spectrometry.

In another data set the test system is HCT-116. The data set can be described thus: Cytotoxicity against human HCT-116 cells assessed as reduction in cell viability measured after 48 hrs. In kind it is functional, cell-based. Particulars: HCT-116, 48 h.
The test system of another data set is MCF7. The data set can be described thus: Cytotoxicity against human MCF7 cells assessed as reduction in cell viability measured after 48 hrs. In kind it is functional, cell-based. Particulars: MCF7, 48 h.
For data set [5], the system named is HepG2. Briefly: Cytotoxicity against human HepG2 cells assessed as reduction in cell viability measured after 48 hrs. Format: functional, cell-based. Particulars: HepG2, 48 h.
The next data set concerns A549. The data set can be described thus: Cytotoxicity against human A549 cells assessed as reduction in cell viability measured after 48 hrs. Format: functional, cell-based. To be noted: A549, 48 h.
Data set [6] deals with T2, Glutathione reductase, mitochondrial (Homo sapiens, UniProt P00390).
T2 sequence (P00390 whole entry): T1 sequence (whole entry)
Briefly: Inhibition of glutathione reductase (unknown origin).

The nature of data set [7]: Drug uptake in human HeLa cells mitochondria measured after 6 hrs. In kind it is ADME.
Data set [8] concerns HeLa. The data set can be described thus: Inhibition of mitochondrial respiration in human HeLa cells assessed as decrease in oxygen consumption rate at 2 uM incubated for 24 hrs by Seahorse XF-bioenergetic system analysis. Format: functional, cell-based.
Data set [9] relates to HeLa. The data set can be described thus: Induction of mitophagy in human HeLa cells assessed as colocalization of mitochondria and lysosomes by confocal laser scanning microscopy. Format: functional, cell-based.
The test system of data set [10] is HeLa. Briefly: Induction of autophagy in human HeLa cells assessed as autophagosomes vacuole formation. In kind it is functional, cell-based.
For data set [11], the system named is HeLa. Briefly: Increase in oxidized glutathione (GSSG) levels in human HeLa cells assessed as decrease in ratio of intracellular GSH to GSSG at 1 to 20 uM. Particulars: dose 1-20 µM. In kind it is functional, cell-based.
Data set [12] relates to Cell membrane. The data set can be described thus: Dissipation of mitochondrial membrane potential in human HeLa cells assessed as proportion of cells with high MMP at 5 uM measured after 24 hrs by JC-1 staining based flow cytometry (reference value: 96.54%). To be noted: Mitochondria.
Data set [13] deals with Cell membrane. The data set can be described thus: Dissipation of mitochondrial membrane potential in human HeLa cells assessed as proportion of cells with low MMP at 0.5 uM measured after 24 hrs by JC-1 staining based flow cytometry (reference value: 3.01%). To be noted: Mitochondria.
For data set [14], the system named is HepG2. The data set can be described thus: Inhibition of mitochondrial respiration in human HepG2 cells assessed as decrease in oxygen consumption rate by Seahorse XF-bioenergetic system analysis. Format: functional, cell-based.
For data set [15], the system named is Cell membrane. The data set can be described thus: Dissipation of mitochondrial membrane potential in human HeLa cells assessed as proportion of cells with high MMP at 0.5 uM measured after 24 hrs by JC-1 staining based flow cytometry (reference value: 96.54%). Particulars: Mitochondria.
The test system of data set [16] is Cell membrane. Briefly: Dissipation of mitochondrial membrane potential in human HeLa cells assessed as increase in green fluorescence intensity at 0.5 to 5 uM measured after 24 hrs by JC-1 staining based fluorescence microscopy. To be noted: Mitochondria, dose 0.5-5 µM.
In data set [17] the test system is HeLa. Briefly: Induction of ROS production in human HeLa cells by DCFDA staining based fluorescence analysis. Format: functional, cell-based.
Data set [18] is described as follows: Increase in oxidized glutathione (GSSG) levels in human HeLa cells relative to control. In kind it is functional.
Data set [19] has as its system HepG2. The data set can be described thus: Inhibition of glycolysis in human HepG2 cels assessed as decrease in extracellular acidification rate. In kind it is functional, cell-based.
Data set [20] has as its system Cell membrane. The data set can be described thus: Dissipation of mitochondrial membrane potential in human HeLa cells assessed as proportion of cells with low MMP at 5 uM measured after 24 hrs by JC-1 staining based flow cytometry (reference value: 3.01%). To be noted: Mitochondria.
Data set [21] has as its system HeLa. Briefly: Inhibition of glycolysis in human HeLa cells assessed as decrease in extracellular acidification rate at 2 uM. In kind it is functional, cell-based.
In data set [22] the test system is HeLa. The data set can be described thus: Induction of mitochondrial morphological changes in human HeLa cells assessed as multilayered vesicles formation at IC50 incubated for 48 hrs by transmission electron microscopy. In kind it is functional, cell-based.
The subject of data set [23] is HeLa. Briefly: Inhibition of mitochondrial respiration in human HeLa cells assessed as increase in proton leakage. Format: functional, cell-based.
In data set [24] the target is T1, Glutathione reductase, mitochondrial (Homo sapiens). The data set can be described thus: Inhibition of glutathione reductase in human HeLa cells mitochondria. Particulars: concentration not given here.
For data set [25], the system named is HeLa. Briefly: Inhibition of mitochondrial respiration in human HeLa cells assessed as decrease in basal respiration. In kind it is functional, cell-based.
Data set [26] relates to HeLa. The data set can be described thus: Inhibition of mitochondrial respiration in human HeLa cells assessed as decrease in ATP production capacity. In kind it is functional, cell-based.
The subject of data set [27] is HeLa. The data set can be described thus: Induction of autophagy in human HeLa cells assessed as increase in ratio of lipidated LC3B-II to LC3B-I incubated for 24 hrs by immunoblotting analysis. Format: functional, cell-based. Particulars: dose 0.5-10 µM.
Data set [28] relates to HeLa. Briefly: Decrease in reduced glutathione (GSH) levels in human HeLa cells. In kind it is functional, cell-based.
Data set [29] has as its system HeLa. The data set can be described thus: Induction of mitochondrial morphological changes in human HeLa cells assessed as disappearance of cristae and vacuolar mitochondrial formation at 10 uM incubated for 48 hrs by transmission electron microscopy. In kind it is functional, cell-based.
Data set [30] concerns HeLa. The data set can be described thus: Cytotoxicity against GR-knock out human HeLa cells assessed as reduction in cell viability at 10 uM incubated for 48 hrs. Format: functional, cell-based.
Data set [31] relates to HeLa. Briefly: Decrease in reduced glutathione (GSH) levels in human HeLa cells at 1 to 5 uM incubated for 6 hrs by Thiol-tracker Violet based confocal imaging analysis. In kind it is functional, cell-based. To be noted: dose 1-5 µM.
For data set [32], the system named is HeLa. Briefly: Induction of mitochondrial morphological changes in human HeLa cells assessed as increase in Mitofilin expression at 2 uM by immunofluorescence analysis. In kind it is functional, cell-based.
Data set [33] addresses T1, Glutathione reductase, mitochondrial (Homo sapiens). The data set can be described thus: Inhibition of glutathione reductase in human HeLa cells. In kind it is cell-based. To be noted: concentration not given here.
Data set [34] has as its system HeLa. Briefly: Induction of autophagy in human HeLa cells assessed as downregulation of p62 expression incubated for 24 hrs by immunoblotting analysis. Format: functional, cell-based. Particulars: dose 0.5-10 µM. For orientation: In western blotting, separated proteins are transferred to a membrane and probed.
Data set [35] deals with HeLa. The data set can be described thus: Induction of mitophagy in human HeLa cells assessed as localization of mitochondria in vacuoles at 10 uM incubated for 48 hrs by transmission electron microscopy. In kind it is functional, cell-based.

For the molecule `N#CC(C#N)=NNc1cccc(Cl)c1`, the results for the Activity in the data set with Cell membrane [1] and in the data set with Cell membrane [2] were 98.8% and 1.24%, respectively.
As usually defined, the IC50 is the concentration that inhibits the measured activity by half. Consider `COc1ccc(C(=O)/C=C/c2cccc([N+](=O)[O-])c2)cc1F`, for which the IC50 in the data set with HeLa [3] was over 50 µM; with HCT-116 it was over 50 µM; in the data set with MCF7, over 100 µM; in the data set with HepG2 [5], over 50 µM; in the data set with A549, over 100 µM; in data set [6], “Not Active”. For the same molecule, the result in [4] was inactive. Further, the Drug uptake in data set [7] was found to be 12%.
Broadly, the inhibition is the drop in the measured response relative to a control, in per cent. With `O=C(/C=C/c1cccc([N+](=O)[O-])c1)c1ccc(OCc2cn(CCCC[P+](c3ccccc3)(c3ccccc3)c3ccccc3)nn2)c(F)c1`, the inhibition entry in the data set with HeLa [8], in the data set with HepG2 [14], with HepG2 [19], with HeLa [21], with HeLa [23] and in the data set on HeLa [25] was “Active” throughout. Moreover, the inhibition result in the data set with HeLa [26] is “Active”. The result (with HeLa [9]; in the data set on HeLa [10]; in the data set on HeLa [11]; in data set [4]; in the data set on Cell membrane [16]; with HeLa [17]) was Active. The result in the data set on HeLa [22], in the data set on HeLa [29], in the data set on HeLa [32] and with HeLa [35] was Active. The IC50 was determined as 2.4 µM in the data set with HeLa [3]; 8.2 µM in the data set on HCT-116; 17.4 µM in the data set on MCF7; 4.6 µM in the data set on HepG2 [5]; 10.2 µM in the data set on A549; 0.59 µM in [6] (read-out: IC50). Also, the Activity with Cell membrane [12] is 15.6%; with Cell membrane [13] it was 50.1%; with Cell membrane [15], 49.4%; in the data set with Cell membrane [20], 80.7%; in the data set with HeLa [27], “Dose-Dependent Effect”; in the data set with HeLa [34], “Dose-Dependent Effect”. In data set [18], the “fold change (FC)” value is listed as 2. Besides, the inhibition in [24] was determined as 50%; in data set [33], 20%. Moreover, the inhibition entry in the data set with HeLa [28] and in the data set with HeLa [31] was “inactive” throughout. Moreover, the outcome with HeLa [30] was inactive. This molecule also gave a Drug uptake in data set [7] of 33%.
